Laboratory results from publication PMC9898036, “VIP152 is a selective CDK9 inhibitor with pre-clinical in vitro and in vivo efficacy in chronic lymphocytic leukemia” (Leukemia, 2022).

Key:
[1] = target: T1, CDK9 in complex with Cyclin K (Homo sapiens, UniProt P50750); assay: HotSpot radiometric kinase assay; type: biochemical; conditions: 10-dose series from 0.5 nM to 10 µM; vs dinaciclib, KB-0742, atuveciclib
T1 construct: host or cells: HEK293
Method: We next compared VIP152 to other CDK inhibitors currently in development. […] The compounds were tested in a 10-dose series from 0.5 nM to 10 µM against CDK9 in complex with Cyclin T1/T2/K, CDK7/Cyclin H, and GSK3α/β. […]
HotSpot Kinase Assay Protocol
Compounds tested via HotSpot Kinase Assay were sent to ReactionBio for the experiment. The […]
Kinase substrate was added to reaction buffer (20 mM Hepes (pH 7.5), 10 mM MgCl2, 1 mM EGTA, 0.01% Brij35, 0.02 mg/ml BSA, 0.1 mM Na3VO4, 2 mM DTT, 1% DMSO). Cofactors and kinases were gently added to the reaction buffer. Compounds to be tested were dissolved in 100% DMSO and were delivered into the kinase reaction mixture by Acoustic technology (Echo550; nanoliter range) and incubated for 20 min at room temperature. 32P-ATP was delivered into the reaction mixture and the reaction was allowed to proceed for 2 hours. Kinase activity was detected by P81 filter-binding method.

Adrenergic β1 = Adrenergic β1 (Homo sapiens, UniProt P08588); assay: Eurofins Diversity Panel; type: binding; conditions: hum, Conc. 10 μM
Glucocorticoid = Glucocorticoid (Homo sapiens, UniProt P04150); assay: Eurofins Diversity Panel; type: binding; conditions: hum, Conc. 10 μM
Muscarinic M1 = Muscarinic M1 (Homo sapiens, UniProt P11229); assay: Eurofins Diversity Panel; type: binding; conditions: hum, Conc. 10 μM
Neuropeptide Y Y1 = Neuropeptide Y Y1 (Homo sapiens, UniProt P25929); assay: Eurofins Diversity Panel; type: binding; conditions: hum, Conc. 10 μM
Opiate κ(OP2, KOP) = Opiate κ(OP2, KOP) (Homo sapiens, UniProt P41145); assay: Eurofins Diversity Panel; type: binding; conditions: hum, Conc. 10 μM
Sequence of Opiate κ(OP2, KOP) (P41145 whole entry): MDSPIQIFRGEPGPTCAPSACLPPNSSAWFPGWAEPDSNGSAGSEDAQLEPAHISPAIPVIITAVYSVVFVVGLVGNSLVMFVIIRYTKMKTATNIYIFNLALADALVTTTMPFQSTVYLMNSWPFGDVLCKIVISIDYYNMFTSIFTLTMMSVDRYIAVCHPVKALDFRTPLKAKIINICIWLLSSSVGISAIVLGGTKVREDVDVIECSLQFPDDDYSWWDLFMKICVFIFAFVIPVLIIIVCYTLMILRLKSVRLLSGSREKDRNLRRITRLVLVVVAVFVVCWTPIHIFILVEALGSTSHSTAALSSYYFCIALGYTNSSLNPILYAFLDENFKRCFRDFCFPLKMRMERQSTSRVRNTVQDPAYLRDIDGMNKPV

Transporter, GABA = Transporter, GABA (Rattus norvegicus, UniProt P23978); assay: Eurofins Diversity Panel; type: binding; conditions: Conc. 10 μM
[2] = target: Transporter, Norepinephrine (NET) (Homo sapiens, UniProt P23975); assay: Eurofins Diversity Panel; type: binding; conditions: hum, Conc. 10 μM
[3] = target: Transporter, Serotonin (5-Hydroxytryptamine) (SERT) (Homo sapiens, UniProt P31645); assay: Eurofins Diversity Panel; type: binding; conditions: hum, Conc. 10 μM
RIOK1 = RIOK1 (Homo sapiens, UniProt Q9BRS2); assay: KINOMEscan: RIOK1; type: binding; conditions: 100 nM, read-out: Percent Control
RIPK4 = RIPK4 (Homo sapiens, UniProt P57078); assay: KINOMEscan: RIPK4; type: binding; conditions: 100 nM, read-out: Percent Control
[4] = target: RSK2(Kin.Dom.1-N-terminal) (Homo sapiens, UniProt P51812); assay: KINOMEscan: RSK2(Kin.Dom.1-N-terminal); type: binding; conditions: 100 nM, read-out: Percent Control
STK35 = STK35 (Homo sapiens, UniProt Q8TDR2); assay: KINOMEscan: STK35; type: binding; conditions: 100 nM, read-out: Percent Control
VPS34 = VPS34 (Homo sapiens, UniProt Q8NEB9); assay: KINOMEscan: VPS34; type: binding; conditions: 100 nM, read-out: Percent Control
YANK2 = YANK2 (Homo sapiens, UniProt Q9NY57); assay: KINOMEscan: YANK2; type: binding; conditions: 100 nM, read-out: Percent Control
ZAP70 = ZAP70 (Homo sapiens, UniProt P43403); assay: KINOMEscan: ZAP70; type: binding; conditions: 100 nM, read-out: Percent Control
ACVR2A = ACVR2A (Homo sapiens, UniProt P27037); assay: KINOMEscan: ACVR2A; type: binding; conditions: 1000 nM, read-out: Percent Control
Sequence of ACVR2A (P27037 20-513): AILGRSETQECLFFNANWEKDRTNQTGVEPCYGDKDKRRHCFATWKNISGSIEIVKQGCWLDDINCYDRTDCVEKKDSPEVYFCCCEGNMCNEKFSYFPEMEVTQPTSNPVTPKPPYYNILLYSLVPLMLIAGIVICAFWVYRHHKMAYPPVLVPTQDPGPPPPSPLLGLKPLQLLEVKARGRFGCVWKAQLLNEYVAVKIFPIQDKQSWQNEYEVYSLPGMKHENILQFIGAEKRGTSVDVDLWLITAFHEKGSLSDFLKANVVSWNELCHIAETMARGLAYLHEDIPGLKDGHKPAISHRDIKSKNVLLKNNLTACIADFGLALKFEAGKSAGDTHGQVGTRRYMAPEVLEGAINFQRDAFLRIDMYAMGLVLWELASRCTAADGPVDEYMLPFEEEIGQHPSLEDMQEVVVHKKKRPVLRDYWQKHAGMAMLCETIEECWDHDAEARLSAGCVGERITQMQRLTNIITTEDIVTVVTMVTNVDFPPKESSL

ARK5 = ARK5 (Homo sapiens, UniProt O60285); assay: KINOMEscan: ARK5; type: binding; conditions: 1000 nM, read-out: Percent Control
CDK11 = CDK11 (Homo sapiens, UniProt Q9BWU1); assay: KINOMEscan: CDK11; type: binding; conditions: 1000 nM, read-out: Percent Control
CIT = CIT (Homo sapiens, UniProt O14578); assay: KINOMEscan: CIT; type: binding; conditions: 1000 nM, read-out: Percent Control
Sequence of CIT (O14578 whole entry): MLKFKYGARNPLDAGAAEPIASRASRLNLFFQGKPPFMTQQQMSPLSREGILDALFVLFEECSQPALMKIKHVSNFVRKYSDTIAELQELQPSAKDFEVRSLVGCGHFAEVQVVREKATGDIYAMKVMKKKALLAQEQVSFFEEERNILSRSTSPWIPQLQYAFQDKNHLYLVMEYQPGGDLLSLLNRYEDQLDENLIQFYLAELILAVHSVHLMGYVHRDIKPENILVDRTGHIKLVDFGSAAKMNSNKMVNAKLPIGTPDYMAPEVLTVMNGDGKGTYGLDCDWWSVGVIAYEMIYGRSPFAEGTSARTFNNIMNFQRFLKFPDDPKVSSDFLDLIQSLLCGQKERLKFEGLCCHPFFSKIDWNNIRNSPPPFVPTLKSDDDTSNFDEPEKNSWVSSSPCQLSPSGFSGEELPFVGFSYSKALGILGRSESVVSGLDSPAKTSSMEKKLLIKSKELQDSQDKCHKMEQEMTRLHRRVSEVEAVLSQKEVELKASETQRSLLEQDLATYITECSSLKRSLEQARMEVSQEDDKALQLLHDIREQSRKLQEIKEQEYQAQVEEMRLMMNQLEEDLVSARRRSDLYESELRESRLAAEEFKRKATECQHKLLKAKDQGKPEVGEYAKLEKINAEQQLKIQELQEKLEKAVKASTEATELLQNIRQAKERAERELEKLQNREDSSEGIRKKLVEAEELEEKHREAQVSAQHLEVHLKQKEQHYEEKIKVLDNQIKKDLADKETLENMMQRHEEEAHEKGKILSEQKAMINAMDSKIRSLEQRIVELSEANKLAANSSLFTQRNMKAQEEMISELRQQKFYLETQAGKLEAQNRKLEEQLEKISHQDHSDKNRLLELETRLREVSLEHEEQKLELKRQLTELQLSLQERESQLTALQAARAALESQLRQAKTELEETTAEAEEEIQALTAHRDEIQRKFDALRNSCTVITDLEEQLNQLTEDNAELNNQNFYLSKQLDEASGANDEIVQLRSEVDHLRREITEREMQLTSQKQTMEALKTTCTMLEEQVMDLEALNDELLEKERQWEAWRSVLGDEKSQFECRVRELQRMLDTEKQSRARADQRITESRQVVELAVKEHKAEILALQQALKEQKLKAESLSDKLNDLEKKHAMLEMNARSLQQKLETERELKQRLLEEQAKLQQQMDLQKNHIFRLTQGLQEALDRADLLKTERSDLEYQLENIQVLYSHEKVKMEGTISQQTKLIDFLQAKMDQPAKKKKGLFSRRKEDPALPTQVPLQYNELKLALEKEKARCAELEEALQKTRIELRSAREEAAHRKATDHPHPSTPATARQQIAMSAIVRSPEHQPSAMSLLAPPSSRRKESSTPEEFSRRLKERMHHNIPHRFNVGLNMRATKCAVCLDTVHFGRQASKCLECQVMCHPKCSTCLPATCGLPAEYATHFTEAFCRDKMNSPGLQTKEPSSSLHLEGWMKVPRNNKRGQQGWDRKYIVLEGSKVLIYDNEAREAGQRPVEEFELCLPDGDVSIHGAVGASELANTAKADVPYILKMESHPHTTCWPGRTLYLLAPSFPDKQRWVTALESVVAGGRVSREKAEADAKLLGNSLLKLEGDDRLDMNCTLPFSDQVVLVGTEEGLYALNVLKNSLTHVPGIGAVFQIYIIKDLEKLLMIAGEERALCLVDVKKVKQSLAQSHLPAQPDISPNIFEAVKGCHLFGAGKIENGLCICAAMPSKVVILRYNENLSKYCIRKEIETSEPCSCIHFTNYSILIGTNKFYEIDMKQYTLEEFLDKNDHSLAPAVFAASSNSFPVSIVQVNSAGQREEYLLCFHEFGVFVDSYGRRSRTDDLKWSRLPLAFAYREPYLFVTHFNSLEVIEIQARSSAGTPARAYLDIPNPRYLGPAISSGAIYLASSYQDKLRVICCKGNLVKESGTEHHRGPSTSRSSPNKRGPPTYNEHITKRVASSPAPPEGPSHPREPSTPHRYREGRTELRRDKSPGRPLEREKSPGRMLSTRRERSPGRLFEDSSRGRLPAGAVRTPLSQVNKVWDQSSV

EGFR(E746-A750del) = EGFR(E746-A750del) (Homo sapiens, UniProt P00533, DEL746-750); assay: KINOMEscan: EGFR(E746-A750del); type: binding; conditions: 1000 nM, read-out: Percent Control
EGFR(G719S) = EGFR(G719S) (Homo sapiens, UniProt P00533, G719S); assay: KINOMEscan: EGFR(G719S); type: binding; conditions: 1000 nM, read-out: Percent Control
EGFR(L858R,T790M) = EGFR(L858R,T790M) (Homo sapiens, UniProt P00533, L858R/T790M); assay: KINOMEscan: EGFR(L858R,T790M); type: binding; conditions: 1000 nM, read-out: Percent Control
EGFR(L861Q) = EGFR(L861Q) (Homo sapiens, UniProt P00533, L861Q); assay: KINOMEscan: EGFR(L861Q); type: binding; conditions: 1000 nM, read-out: Percent Control
ERBB3 = ERBB3 (Homo sapiens, UniProt P21860); assay: KINOMEscan: ERBB3; type: binding; conditions: 1000 nM, read-out: Percent Control
Sequence of ERBB3 (P21860 20-1342): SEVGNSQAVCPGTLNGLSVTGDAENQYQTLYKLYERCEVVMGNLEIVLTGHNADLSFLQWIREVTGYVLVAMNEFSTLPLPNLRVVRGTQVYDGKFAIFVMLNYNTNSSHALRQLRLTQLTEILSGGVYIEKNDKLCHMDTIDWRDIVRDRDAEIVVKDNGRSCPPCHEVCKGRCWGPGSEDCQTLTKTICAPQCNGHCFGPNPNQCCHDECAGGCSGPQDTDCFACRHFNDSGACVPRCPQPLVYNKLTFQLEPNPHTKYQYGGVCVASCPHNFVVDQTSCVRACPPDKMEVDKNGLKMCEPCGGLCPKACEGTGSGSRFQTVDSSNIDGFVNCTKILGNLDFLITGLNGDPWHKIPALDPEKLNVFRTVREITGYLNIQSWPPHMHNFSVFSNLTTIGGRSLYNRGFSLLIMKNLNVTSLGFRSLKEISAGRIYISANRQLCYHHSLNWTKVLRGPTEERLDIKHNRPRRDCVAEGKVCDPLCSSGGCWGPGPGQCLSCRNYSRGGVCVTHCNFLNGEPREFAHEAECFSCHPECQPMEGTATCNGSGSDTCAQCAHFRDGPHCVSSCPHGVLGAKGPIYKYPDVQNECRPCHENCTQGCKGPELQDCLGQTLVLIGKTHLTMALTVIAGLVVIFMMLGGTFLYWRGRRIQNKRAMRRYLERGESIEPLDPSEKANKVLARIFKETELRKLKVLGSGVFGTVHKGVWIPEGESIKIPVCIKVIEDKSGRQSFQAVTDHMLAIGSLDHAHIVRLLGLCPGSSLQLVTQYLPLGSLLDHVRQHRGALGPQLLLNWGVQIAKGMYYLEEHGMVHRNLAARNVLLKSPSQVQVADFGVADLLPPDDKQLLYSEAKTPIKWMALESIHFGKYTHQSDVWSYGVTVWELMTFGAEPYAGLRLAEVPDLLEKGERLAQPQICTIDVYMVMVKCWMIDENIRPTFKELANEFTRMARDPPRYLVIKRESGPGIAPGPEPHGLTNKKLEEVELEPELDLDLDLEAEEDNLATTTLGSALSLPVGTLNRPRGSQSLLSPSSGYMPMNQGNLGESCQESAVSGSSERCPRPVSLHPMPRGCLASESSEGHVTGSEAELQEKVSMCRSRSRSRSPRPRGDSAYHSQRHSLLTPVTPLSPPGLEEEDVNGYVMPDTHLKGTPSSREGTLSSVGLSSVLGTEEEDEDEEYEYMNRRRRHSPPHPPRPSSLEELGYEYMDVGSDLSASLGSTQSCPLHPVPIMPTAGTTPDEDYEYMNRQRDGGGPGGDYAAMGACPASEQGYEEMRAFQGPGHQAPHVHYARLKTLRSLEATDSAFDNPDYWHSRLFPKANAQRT

FGFR4 = FGFR4 (Homo sapiens, UniProt P22455); assay: KINOMEscan: FGFR4; type: binding; conditions: 1000 nM, read-out: Percent Control
FLT3(D835Y) = FLT3(D835Y) (Homo sapiens, UniProt P36888, D835Y); assay: KINOMEscan: FLT3(D835Y); type: binding; conditions: 1000 nM, read-out: Percent Control
FLT3(R834Q) = FLT3(R834Q) (Homo sapiens, UniProt P36888, R834Q); assay: KINOMEscan: FLT3(R834Q); type: binding; conditions: 1000 nM, read-out: Percent Control
FLT4 = FLT4 (Homo sapiens, UniProt P35916); assay: KINOMEscan: FLT4; type: binding; conditions: 1000 nM, read-out: Percent Control
GRK7 = GRK7 (Homo sapiens, UniProt Q8WTQ7); assay: KINOMEscan: GRK7; type: binding; conditions: 1000 nM, read-out: Percent Control
KIT(A829P) = KIT(A829P) (Homo sapiens, UniProt P10721, A829P); assay: KINOMEscan: KIT(A829P); type: binding; conditions: 1000 nM, read-out: Percent Control
CDK7/Cyclin H = CDK7/Cyclin H (Homo sapiens, UniProt P50613); assay: NanoBRET target engagement assay (HEK293); type: cell-based; set-up: host or cells: HEK293
OSU-CLL = assay: Annexin V/propidium iodide flow cytometry; conditions: compared with HG-3 and MEC-1; 24, 48, 72 h
Method: HG-3, MEC-1, and OSU-CLL were cultured for 24, 48, and 72 h with VIP152 or DMSO.
MTS Proliferation Studies, Annexin V/PI Flow Cytometry
For apoptosis assays of primary CLL, cells were acquired under an institutional reviewer board-approved protocol with informed consent. Leukemia cells were isolated from whole blood utilizing RosetteSep Human B Cell Enrichment Cocktail ([sequence]). Stromal
coculture was done by plating HS-5 stromal cells (50% confluent) in a 6-well plate 24 hours before the addition of CLL cells. CLL cells were added to the plate with VIP152 and allowed to incubate for four hours upon which the cells were centrifuged and replated using 50% HS-5 conditioned media. Apoptosis was measured utilizing FITC-conjugated Annexin-V and Propidium Iodide (Leinco) on a Beckmann-Coulter Cytoflex. Primary samples were excluded from analysis if the viability of the DMSO group was <40% as defined by Annexin-V/Propdium Iodide-/- cells. Single-color controls were utilized for compensation using pooled primary cell sample heated for

COc1cc(F)ccc1-c1cc(Nc2cc(CS(C)(=N)=O)ccn2)ncc1F (stereo not drawn) [VIP152]
potency versus the other inhibitors tested [1]: higher potency
inhibition at 10 µM (Adrenergic β1): -7%
inhibition at 10 µM (Glucocorticoid): 30%
inhibition at 10 µM (Muscarinic M1): -10%
inhibition at 10 µM (Neuropeptide Y Y1): -3%
inhibition at 10 µM (Opiate κ(OP2, KOP)): 8%
inhibition at 10 µM (Transporter, GABA): -20%
inhibition at 10 µM [2]: 37%
inhibition at 10 µM [3]: -3%
remaining binding at 0.1 µM (RIOK1): 100%
remaining binding at 0.1 µM (RIPK4): 100%
remaining binding at 0.1 µM [4]: 100%
remaining binding at 0.1 µM (STK35): 100%
remaining binding at 0.1 µM (VPS34): 94%
remaining binding at 0.1 µM (YANK2): 71%
remaining binding at 0.1 µM (ZAP70): 99%
remaining binding at 1 µM (ACVR2A): 75%
remaining binding at 1 µM (ARK5): 100%
remaining binding at 1 µM (CDK11): 100%
remaining binding at 1 µM (CIT): 43%
remaining binding at 1 µM (EGFR(E746-A750del)): 76%
remaining binding at 1 µM (EGFR(G719S)): 86%
remaining binding at 1 µM (EGFR(L858R,T790M)): 81%
remaining binding at 1 µM (EGFR(L861Q)): 100%
remaining binding at 1 µM (ERBB3): 98%
remaining binding at 1 µM (FGFR4): 76%
remaining binding at 1 µM (FLT3(D835Y)): 67%
remaining binding at 1 µM (FLT3(R834Q)): 78%
remaining binding at 1 µM (FLT4): 74%
remaining binding at 1 µM (GRK7): 87%
remaining binding at 1 µM (KIT(A829P)): 100%
IC50 compared with other inhibitors (CDK7/Cyclin H): IC50 was higher than dinaciclib and KB-0742
sensitivity to induction of apoptosis (OSU-CLL): highest sensitivity to induction of apoptosis
